Assay results published in ChEMBL document CHEMBL1137172, “A library synthesis of 4-hydroxy-3-methyl-6-phenylbenzofuran-2-carboxylic acid ethyl ester derivatives as anti-tumor agents” (Bioorg Med Chem Lett, 2004).
In brackets after ≈: the same amount, converted by molar mass.

Key:
[1] = Effective concentration required for cytotoxicity against human VA-13 cell line; assay type: functional, cell-based
[2] = Partition coefficient (logP); assay type: physicochemical; settings: octanol/water
WI-38 = test: Effective concentration required for cytotoxicity against normal human WI-38 cell line; assay type: functional, cell-based

Row | logP [2] | Compound | EC50 [1] [µg/mL] | EC50 (WI-38) [µg/mL]
1 | – | CCOC(=O)c1oc2cc(-c3c(F)cccc3Cl)cc(O)c2c1C | > 4 | –
2 | – | CCOC(=O)c1oc2cc(-c3ccc(F)cc3)cc(O)c2c1C | 0.37 (≈ 1.18 µM) | –
3 | – | CCOC(=O)c1oc2cc(-c3ccccc3O)cc(O)c2c1C | 0.31 (≈ 0.993 µM) | –
4 | – | CCOC(=O)c1oc2cc(-c3ccc(Cl)cc3)cc(O)c2c1C | > 4 | –
5 | – | CCOC(=O)c1oc2cc(-c3ccc(OCC)cc3)cc(O)c2c1C | > 4 | –
6 | – | CCOC(=O)c1oc2cc(-c3cccc(C(F)(F)F)c3)cc(O)c2c1C | 0.7 (≈ 1.92 µM) | –
7 | – | CCOC(=O)c1oc2cc(-c3cccc(O)c3)cc(O)c2c1C | 0.52 (≈ 1.66 µM) | –
8 | – | CCOC(=O)c1oc2cc(-c3c(Cl)cccc3Cl)cc(O)c2c1C | > 4 | –
9 | – | CCOC(=O)c1oc2cc(-c3ccc(OCc4ccccc4)cc3)cc(O)c2c1C | > 4 | –
10 | – | CCOC(=O)c1oc2cc(-c3cccc(Cl)c3)cc(O)c2c1C | 0.08 (≈ 0.242 µM) | –
11 | 2.7 | CCOC(=O)c1oc2cc(-c3cccc(F)c3)cc(O)c2c1C | 0.017 (≈ 0.0541 µM) | –
12 | – | CCOC(=O)c1oc2cc(-c3cccc(OC)c3)cc(O)c2c1C | 0.08 (≈ 0.245 µM) | –
13 | 2.6 | CCOC(=O)c1[nH]c2cc(-c3ccccc3)cc(O)c2c1C | 0.47 (≈ 1.59 µM) | –
14 | 2.2 | COc1cccnc1C(=O)c1oc2cc(-c3ccccc3)cc(O)c2c1C | 0.028 (≈ 0.0779 µM) | –
15 | – | CCOC(=O)c1oc2cc(-c3cccc(Br)c3)cc(O)c2c1C | 0.085 (≈ 0.227 µM) | –
16 | – | CCOC(=O)c1oc2cc(-c3ccc(C)cc3)cc(O)c2c1C | > 4 | –
17 | – | CCOC(=O)c1oc2cc(-c3ccc(OC)cc3)cc(O)c2c1C | > 4 | –
18 | – | CCOC(=O)c1oc2cc(-c3ccco3)cc(O)c2c1C | 0.18 (≈ 0.629 µM) | –
19 | 2.6 | CCOC(=O)c1oc2cc(-c3ccccc3)cc(O)c2c1C | 0.04 (≈ 0.135 µM) | > 4
20 | – | CCOC(=O)c1oc2cc(-c3cccc([N+](=O)[O-])c3)cc(O)c2c1C | 0.075 (≈ 0.22 µM) | –

Row | logP [2] | Compound | EC50 [1] [µg/mL] | EC50 (WI-38) [µg/mL]
21 | – | CCOC(=O)c1oc2cc(-c3ccc(OC)c(OC)c3)cc(O)c2c1C | > 4 | –
22 | – | CCOC(=O)c1oc2cc(-c3cccc(C)c3)cc(O)c2c1C | 0.08 (≈ 0.258 µM) | –
23 | – | CCOC(=O)c1oc2cc(-c3ccccc3Cl)cc(O)c2c1C | 0.35 (≈ 1.06 µM) | –
24 | – | CCOC(=O)c1oc2cc(-c3ccccc3OC)cc(O)c2c1C | 0.38 (≈ 1.16 µM) | –
25 | – | CCOC(=O)c1oc2cc(-c3ccc(OCCc4ccccc4)cc3)cc(O)c2c1C | > 4 | –
26 | 2.3 | COc1cccnc1C(=O)c1oc2cc(-c3cccc(F)c3)cc(O)c2c1C | 0.027 (≈ 0.0715 µM) | –
27 | – | CCOC(=O)c1oc2cc(C3CCCCC3)cc(O)c2c1C | > 4 | –
28 | – | CCOC(=O)c1oc2cc(-c3cccc(OCc4ccccc4)c3)cc(O)c2c1C | 0.85 (≈ 2.11 µM) | –
29 | – | CCOC(=O)c1oc2cc(-c3ccccc3F)cc(O)c2c1C | 0.048 (≈ 0.153 µM) | –
30 | – | CCOC(=O)c1oc2cc(-c3ccc(O)cc3)cc(O)c2c1C | 0.075 (≈ 0.24 µM) | –
31 | – | CCOC(=O)c1oc2cc(CC(C)(C)C)cc(O)c2c1C | > 4 | –
32 | 2.7 | COc1ccc(C(=O)c2oc3cc(-c4cccc(F)c4)cc(O)c3c2C)c(OC)c1 | 0.03 (≈ 0.0738 µM) | –
33 | – | CCOC(=O)c1oc2cc(-c3cccc(N)c3)cc(O)c2c1C | 0.09 (≈ 0.289 µM) | –
34 | – | CCOC(=O)c1oc2cc(-c3ccc(Br)cc3)cc(O)c2c1C | > 4 | –
35 | – | CCOC(=O)c1oc2cc(-c3ccccc3OCc3ccccc3)cc(O)c2c1C | > 4 | –
36 | – | CCOC(=O)c1oc2cc(-c3ccc(Cl)cc3Cl)cc(O)c2c1C | > 4 | –
37 | 2.7 | COc1ccc(C(=O)c2[nH]c3cc(-c4cccc(F)c4)cc(O)c3c2C)c(OC)c1 | 0.12 (≈ 0.296 µM) | –
38 | – | CCOC(=O)c1oc2cc(-c3ccccc3Br)cc(O)c2c1C | 0.39 (≈ 1.04 µM) | –
39 | – | CCOC(=O)c1oc2cc(-c3cccs3)cc(O)c2c1C | 0.16 (≈ 0.529 µM) | –
40 | 2.6 | COc1ccc(C(=O)c2oc3cc(-c4ccccc4)cc(O)c3c2C)c(OC)c1 | 0.04 (≈ 0.103 µM) | –
